{"source": "patent US20080166766A1", "about": "“Genetic incorporation of unnatural amino acids into proteins in mammalian cells” (The Scripps Research Institute, priority 2006, published 2008)", "key": {"[1]": {"test_system": "T-REx™ CHO cells", "assay": "Yield of purified mutant GFP containing unnatural amino acid (pSWAN two-plasmid system)", "type": "cell-based, Chinese hamster", "details": "pMpa 10 mM, pApa 10 mM, pBpa 1 mM, pAzpa 5 mM, pPpa 1 mM in media, anti-myc column purified", "from_the_text": "The pMpaRS gene was inserted directly after the non-regulated CMV promoter for efficient and continuous expression of pMpaRS. Another plasmid (pSWAN-GFP37TAG in FIG. 4B) containing both three tandem repeats of the BstRNACUA^Tyr gene and the GFP37TAG gene was also constructed. The gene encoding GFP37TAG was inserted after a Tet-regulated CMV promoter to minimize potential read-through of the nonsense amber codon caused by endogenous amber suppression in mammalian cells. These two plasmids were then assayed for their suppression efficiency. Because both plasmids contain three tandem repeats of the BstRNACUA^Tyr gene, varying the ratio of the two plasmids to increase the suppression level is not expected to change the total amount of the BstRNACUA^Tyr gene transfected into cells. Under optimized transfection conditions (0.5 μg of pSWAN-pMpaRS and 2.5 μg pSWAN-GFP37TAG per 2×10^6 cells), the suppression level is roughly two-fold higher than that using the three plasmids pUC18-3BstRNACUA^Tyr, pcDNA4-pMpaRS, and pcDNA4-GFP37TAG (the suppression level was determined by the number of fluorescent cells). Cells were grown for 1-2 days after induction and kept viable before harvesting. The yield of mutant GFP containing pMpa (GFP-pMpa) was also quantified. In the presence of 10 mM pMpa in the growth media, 1 μg of mutant GFP can be obtained from 2×10^7 adhesive T-REx™ CHO cells.\nTransient transfection of T-REx™ CHO and 293 cells with the pSWAN-EcTyrRS variants and pSWAN-GFP37TAG (0.5 μg of pSWAN-EcTyrRS variant and 2.5 μg of pSWAN-GFP37TAG per 2×10^6 cells) all afforded roughly two-fold higher suppression levels than for the three plasmids pUC18-3BstRNACUA^Tyr, pcDNA4-EcTyrRS variant, and pcDNA4-GFP37TAG (with the exception of the pIpa specific variant). Mutant GFPs containing pApa, pBpa, pAzpa or pPpa were also expressed in T-REx™ CHO cells transfected with the pSWAN-EcTyrRS variants and pSWAN-GFP37TAG and grown in media containing the corresponding unnatural amino acid (pApa, 10 mM; pBpa, 1 mM; pAzpa, 5 mM; or pPpa, 1 mM) for 1-2 days, and purified using an anti-myc antibody column. The yields of the mutant proteins containing pApa and pAzpa were close to that for pMpa (˜1 μg per 2×10^7 cells), and the yields of mutant proteins containing pBpa and pPpa were somewhat lower (˜0.7 μg per 2×10^7 cells). Because the expression levels of EcTyrRS variants in T-REx™ CHO cells are similar, the lower yield of the mutant proteins containing pBpa and pPpa may be due to the low concentrations of unnatural amino acids in the media.\npSWAN-EcTyrRS variants and pSWAN-GFP37TAG were used to express mutant GFPs containing unnatural amino acids. T-REx™ CHO cells (Invitrogen™) were grown in 75 cm^2 tissue culture flasks (BD Biosciences) to 80-90% confluency and transfected with 2 μg of pSWAN-EcTyrRS and 10 μg pSWAN-GFP37TAG using […] FuGENE® 6. After overnight incubation, the media were changed to the fresh media containing the unnatural amino acid (pMpa, 10 mM; pApa, 10 mM; pBpa, 1 mM; pAzpa, 5 mM; and pPpa, 1 mM) and 1 μg/ml tetracycline. Cells were then grown for 1-2 days at 37° C. before harvesting, and then lysed with RIPA lysis buffer. The supernatant from the cell lysate was dialyzed against and equilibrated with PBS buffer before loading onto an anti-myc antibody agarose column (Sigma). The column was washed with 15 column volumes of PBS buffer and then eluted with 0.1 M ammonium hydroxide. The purified proteins were neutralized with 0.1 M acetic acid and analyzed by SDS-PAGE. […]"}, "[2]": {"test_system": "position 37 of GFP", "assay": "Fidelity of unnatural amino acid incorporation by mass spectrometry (nano-RP LC/MS/MS, ESI TOF-MS)", "details": "for wild type peptide signals in tandem MS of mutant GFP sample: nano-RP LC/MS/MS of tryptic fragments, mutant GFP from T-REx CHO cells", "from_the_text": "To further characterize GFP-pMpa, the mutant protein was expressed in T-REx™ CHO cells transiently transfected with both pSWAN-pMpaRS and pSWAN-GFP37TAG. The protein was purified using an anti-myc antibody agarose column and then separated by SDS-PAGE. The GFP-pMpa band from the SDS-PAGE gel was digested with trypsin and analyzed by nanoscale reversed-phase liquid chromatography/mass spectrometry/mass spectrometry (nano-RP LC/MS/MS). In parallel, wild type GFP was purified from cells transfected with pcDNA4-GFP and subjected to the same analysis.\nProteolysis of affinity purified proteins (performed for wild-type and pBpa samples) was carried out by overnight incubation of proteins at 37° C. with sequencing-grade modified trypsin (Promega) using a substrate/enzyme ratio of 10:1 (wt/wt) based on the estimated protein concentration in 100 mM triethylammonium bicarbonate buffer (pH 8.5). In-gel digestions (performed for pMpa, pAzpa, pApa, and pPpa samples) were performed according to a modified EMBL procedure (see the website for EMBL, Heidelberg, Germany, Bioanalytical Research Group). Briefly, gel slices were excised to approximately 1 mm×1 mm cubes, washed for 5 minutes with water, 15 minutes with acetonitrile, and dried in a vacuum centrifuge before being rehydrated at 0° C. for 30 minutes with 12.5 ng/μl of sequencing-grade modified trypsin in 50 mM triethylammonium bicarbonate buffer (pH 8.5). Excess buffer was removed and 20 μl of 50 mM triethylammonium bicarbonate buffer (pH 8.5) was added to the gel slices before incubating at 37° C. overnight. Peptides were extracted from the gel slices as described in the protocol.\nNano-RP LC/MS/MS was performed with an HPLC pump, autosampler (Agilent Technologies, Palo Alto, Calif.), and an LTQ Orbitrap hybrid mass spectrometer (ThermoElectron, San Jose, Calif.). Tryptic digests were loaded with a pressure bomb onto a 75 μm i.d. precolumn packed with 4 cm of 5-μm Monitor C18 particles (Column Engineering, Ontario, Calif.) at a flow rate of approximately 2 μl/min. The precolumn was then connected to the HPLC pump and after several minutes of washing with solvent A the analytical column with integrated emitter tip (360 μm O.D.×75 μm i.d; 10 cm of 5 μM C18, ˜5-μm tip) was connected in series. The chromatographic profile was from 100% solvent A (0.1% aqueous acetic acid) to 50% solvent B (0.1% acetic acid in acetonitrile) in 40 min; the flow rate through the analytical column was ca. 100 nl/min.\nFor data-dependent experiments, the mass spectrometer was programmed to first record a high-resolution Orbitrap scan then a full-scan ion trap spectrum (m/z 500-2,000). This was followed by 10 data-dependent MS/MS scans (relative collision energy=35%; 3-Da isolation window) triggered of the ion-trap scan and finally two targeted MS/MS scans. The first targeted MS/MS scan was set to isolate and fragment the doubly charged precursor ion of the predicted unnatural amino acid modified peptide\nat m/z 752.3. The raw data were searched against the MSDB database using MASCOT (Matrixscience, London, UK) for protein identification and to find the scans containing the target peptides with the unnatural amino acids as variable modification. To estimate fidelity at Y*37 of GFP-pMpa, single ion chromatograms (doubly charged precursor ions at m/z 752.3 for the wt and 759.3 for pMpa) and selected ion chromatograms (y9, y11, and y12) were integrated using the Xcalibur software package (ThermoElectron, San Jose, Calif.).\nIntact protein mass spectra were acquired on an automated LC/MS system (Waters, Milford, Mass.) consisting of a capillary LC with auto-sampler and a QTOF2 mass spectrometer. GFP-pMpa (0.1 mg/ml) was loaded onto a reversed-phase protein Captrap (Michrom Bioresources, Auburn, Calif.) for desalting with 0.1% acetic acid in water and eluted with 80% acetonitrile/0.1% acetic acid at 5 μl/min into the ESI source of the mass spectrometer. […]"}, "[3]": {"test_system": "Invitrogen™ T-REx™ CHO cells", "assay": "Amber suppression of GFP37TAG: full-length GFP expression by Western blot in T-REx CHO cells", "type": "cell-based, Chinese hamster", "details": "BstRNACUA^Tyr + EcTyrRS variant, unnatural amino acid in media (plpa 8 mM), 24 hours", "procedure": "(§1) The ability of the six EcTyrRS variants together with BstRNACUA^Tyr to suppress the amber codon in GFP37TAG was then tested in the presence and absence of unnatural amino acids in the growth media. Transient transfection of cells with plasmids was carried out as described for wild type EcTyrRS. Six hours after transfection, the media were replaced by the fresh media containing 1 μg/ml tetracycline and supplemented with the corresponding unnatural amino acid (pMpa, 10 mM; pApa, 10 mM; pBpa, 1 mM; plpa, 8 mM; pAzpa, 5 mM; or pPpa, 1 mM). Cells were then grown 24 hours for T-REx™ CHO cell lines and 48 hours for T-REx™ 293 cell lines before harvesting. In both T-REx™ CHO and 293 cells, the expression of full length GFP37TAG was dependent upon the presence of unnatural amino acids in the growth media as indicated in FIG. 2 and FIG. 3. […]\n(§2) For Western blot analysis, harvested cells were lysed in RIPA buffer (Upstate Biotechnology/Millipore) with a 1:100 dilution of protease inhibitor cocktail (Sigma). […] Chemiluminescence was then detected with PIERCE ECL Western Blotting substrate. For T-REx™ 293 cells, the membranes were probed with anti-His-HRP (Invitrogen™; 1:5000 dilution) and then detected with PIERCE ECL Western Blotting substrate."}, "[4]": {"test_system": "Invitrogen™ T-REx™ 293 cells", "assay": "Amber suppression of GFP37TAG: full-length GFP expression by Western blot in T-REx 293 cells", "type": "cell-based, human", "details": "BstRNACUA^Tyr + EcTyrRS variant, unnatural amino acid in media (plpa 8 mM), 48 hours", "procedure": "as §1, §2"}, "[5]": {"test_system": "T-REx™ 293 cells", "assay": "Cellular toxicity of unnatural amino acid in growth media", "type": "cell-based", "details": "8 mM in growth media"}}}
{"smiles": "CC(=O)c1ccc(C[C@H](N)C(=O)O)cc1", "note": "[pApa, p-acetylphenylalanine]", "values": [{"measurement": "yield of mutant GFP containing the unnatural amino acid", "setting": "[1]", "result": "~1", "unit": "μg per 2×10^7 cells"}, {"measurement": "wild type peptide signals in tandem MS of mutant GFP sample", "setting": "[2]", "result": "No wild type signals could be detected"}]}
{"smiles": "N[C@@H](Cc1ccc(C(=O)c2ccccc2)cc1)C(=O)O", "note": "[pBpa, p-benzoylphenylalanine]", "values": [{"measurement": "yield of mutant GFP containing the unnatural amino acid", "setting": "[1]", "result": "~0.7", "unit": "μg per 2×10^7 cells"}, {"measurement": "wild type peptide signals in tandem MS of mutant GFP sample", "setting": "[2]", "result": "trace amount of the wild type peptide"}]}
{"smiles": "COc1ccc(C[C@H](N)C(=O)O)cc1", "note": "[pMpa, p-methoxyphenylalanine]", "values": [{"measurement": "yield of mutant GFP containing the unnatural amino acid", "setting": "[1]", "result": 1, "unit": "μg per 2×10^7 cells"}, {"measurement": "purity estimate from the three most abundant fragment ions (y9, y11, y12) in tandem MS", "setting": "[2]; GFP-pMpa from T-REx CHO cells", "result": 99.93, "unit": "%"}, {"measurement": "fidelity for incorporation (integration of single ion chromatograms of precursor ions)", "setting": "[2]; GFP-pMpa from T-REx CHO cells, tryptic peptide […]*GK", "result": "> 99.9", "unit": "%"}, {"measurement": "wild type GFP signals in intact protein ESI TOF-MS", "setting": "[2]; anti-myc purified GFP-pMpa, charge-state deconvoluted spectrum", "result": "No wild type GFP signals"}]}
{"smiles": "C#CCOc1ccc(C[C@H](N)C(=O)O)cc1", "note": "[pPpa, p-propargyloxyphenylalanine]", "values": [{"measurement": "yield of mutant GFP containing the unnatural amino acid", "setting": "[1]", "result": "~0.7", "unit": "μg per 2×10^7 cells"}, {"measurement": "wild type peptide signals in tandem MS of mutant GFP sample", "setting": "[2]", "result": "No wild type signals could be detected"}]}
{"smiles": "N[C@@H](Cc1ccc(I)cc1)C(=O)O", "note": "[plpa, p-iodophenylalanine]", "values": [{"measurement": "expression of full length GFP37TAG", "setting": "[3]", "result": "low expression level"}, {"measurement": "expression of full length GFP37TAG", "setting": "[4]", "result": "no GFP expression"}, {"measurement": "time until cells die (cellular toxicity)", "setting": "[5]", "result": 6, "unit": "h"}]}
